Measurements from ChEMBL document CHEMBL1137771, “Non-nucleoside inhibitors of HCV polymerase NS5B. Part 2: Synthesis and structure-activity relationships of benzothiazine-substituted quinolinediones” (Bioorg Med Chem Lett, 2009).
Values after ≈ are worked out from the molar mass of the structure shown.

Test system: Hepatitis C virus
Experiment: Antiviral activity against HCV genotype 1b infected in human HuH7 cells by replicon assay
Type: functional, organism-based, Hepacivirus hominis
Conditions: Huh-7

| EC50 [nM] | Structure (SMILES) |
| --- | --- |
| 1200 | O=c1c(C2=CS(=O)(=O)c3ccccc3N2)c(O)c2cc(F)ccc2n1CCC1CC1 |

Test system: Hepatitis C virus
Experiment: Inhibition of HCV 1b isolate BK NS5B Cdelta21 polymerase expressed in Escherichia coli
Parameters: species or system Hepatitis C virus subtype 1b
Conditions: not given

| IC50 [nM] | Structure (SMILES) |
| --- | --- |
| 30 | O=c1c(C2=Nc3ccccc3S(=O)(=O)N2)c(O)c2cc(F)ccc2n1CCC1CC1 |

Test system: not listed separately
Experiment: Oral bioavailability in rat
Type: ADME, organism-based
Conditions: in vivo

| bioavailability [%] | Structure (SMILES) |
| --- | --- |
| 10 | O=c1c(C2=Nc3ccccc3S(=O)(=O)N2)c(O)c2cc(F)ccc2n1CCC1CC1 |
| 79 | O=c1c(C2=CS(=O)(=O)c3ccccc3N2)c(O)c2cc(F)ccc2n1CCC1CC1 |

Test system: not listed separately
Experiment: Solubility of the compound
Type: physicochemical
Conditions: not given

| solubility [µg/mL] | Structure (SMILES) |
| --- | --- |
| < 1 | O=c1c(C2=Nc3ccccc3S(=O)(=O)N2)c(O)c2cc(F)ccc2n1CCC1CC1 |
| 8 (≈ 18.8 µM) | O=c1c(C2=CS(=O)(=O)c3ccccc3N2)c(O)c2cc(F)ccc2n1CCC1CC1 |

Test system: not listed separately
Experiment: Cytotoxicity against human 2209-23 cells by WST1 assay
Type: cell-based
Conditions: not given

| Structure (SMILES) | CC50 [µM] |
| --- | --- |
| CS(=O)(=O)Nc1ccc2c(c1)S(=O)(=O)C=C(c1c(O)c3cc(F)ccc3n(Cc3cccnc3)c1=O)N2 | > 50 |
| CCCC(C)n1c(=O)c(C2=CS(=O)(=O)c3cc(NS(C)(=O)=O)ccc3N2)c(O)c2cc(F)ccc21 (stereo not given) | > 50 |
| CC(C)(C)CCn1c(=O)c(C2=CS(=O)(=O)c3cc(NS(C)(=O)=O)ccc3N2)c(O)c2cc(F)ccc21 | > 50 |
| COC(C)(C)CCn1c(=O)c(C2=CS(=O)(=O)c3cc(NS(C)(=O)=O)ccc3N2)c(O)c2cc(F)ccc21 | > 50 |
| CC(=O)Nc1ccc2c(c1)S(=O)(=O)C=C(c1c(O)c3cc(F)ccc3n(Cc3ccc(F)cc3)c1=O)N2 | > 50 |
| CS(=O)(=O)Nc1ccc2c(c1)S(=O)(=O)C=C(c1c(O)c3cc(F)ccc3n(Cc3ccc(F)cc3)c1=O)N2 | > 50 |
| O=c1c(C2=CS(=O)(=O)c3ccccc3N2)c(O)c2cc(F)ccc2n1Cc1ccc(F)cc1 | > 50 |
| O=c1c(C2=CS(=O)(=O)c3cc(F)ccc3N2)c(O)c2cc(F)ccc2n1Cc1ccc(F)cc1 | > 50 |
| N#Cc1ccc2c(c1)S(=O)(=O)C=C(c1c(O)c3cc(F)ccc3n(Cc3ccc(F)cc3)c1=O)N2 | > 50 |
| CS(=O)(=O)Nc1ccc2c(c1)S(=O)(=O)C=C(c1c(O)c3cc(Cl)ccc3n(Cc3ccc(F)cc3)c1=O)N2 | > 50 |
| CS(=O)(=O)Nc1ccc2c(c1)S(=O)(=O)C=C(c1c(O)c3cc(F)ccc3n(Cc3ccncc3)c1=O)N2 | > 50 |
| Nc1ccc2c(c1)S(=O)(=O)C=C(c1c(O)c3cc(F)ccc3n(Cc3ccc(F)cc3)c1=O)N2 | > 50 |
| NC(=O)COc1ccc2c(c1)S(=O)(=O)C=C(c1c(O)c3cc(F)ccc3n(Cc3ccc(F)cc3)c1=O)N2 | > 50 |
| NS(=O)(=O)Nc1ccc2c(c1)S(=O)(=O)C=C(c1c(O)c3cc(F)ccc3n(Cc3ccc(F)cc3)c1=O)N2 | > 50 |
| CN(c1ccc2c(c1)S(=O)(=O)C=C(c1c(O)c3cc(F)ccc3n(Cc3ccc(F)cc3)c1=O)N2)S(C)(=O)=O | > 50 |

Test system: Hepatitis C virus
Experiment: Ratio of EC50 for HCV genotype 1b isolate con1 in presence of human serum albumin to EC50 for HCV genotype 1b isolate con1 in presence of fetal bovine serum
Type: functional, Hepacivirus hominis
Conditions: not given

| Structure (SMILES) | fold change (FC) |
| --- | --- |
| COC(C)(C)CCn1c(=O)c(C2=CS(=O)(=O)c3cc(NS(C)(=O)=O)ccc3N2)c(O)c2cc(F)ccc21 | 9.2 |
| CS(=O)(=O)Nc1ccc2c(c1)S(=O)(=O)C=C(c1c(O)c3cc(F)ccc3n(Cc3ccc(F)cc3)c1=O)N2 | 13 |
| CS(=O)(=O)Nc1ccc2c(c1)S(=O)(=O)C=C(c1c(O)c3cc(F)ccc3n(Cc3ccncc3)c1=O)N2 | 9.2 |

Test system: Hepatitis C virus
Experiment: Antiviral activity against HCV genotype 1b isolate con1 infected in human 2209-23 cells assessed as inhibition of [3H]thymidine incorporation into DNA by scintillation proximity assay in presence of 5% fetal bovine serum
Type: functional, organism-based, Hepacivirus hominis
Conditions: isolate Con1, 2209-23

| Structure (SMILES) | EC50 [nM] |
| --- | --- |
| CS(=O)(=O)Nc1ccc2c(c1)S(=O)(=O)C=C(c1c(O)c3cc(F)ccc3n(Cc3cccnc3)c1=O)N2 | 589 |
| CC(=O)Nc1ccc2c(c1)S(=O)(=O)C=C(c1c(O)c3cc(F)ccc3n(Cc3ccc(F)cc3)c1=O)N2 | 10900 |
| O=c1c(C2=CS(=O)(=O)c3ccccc3N2)c(O)c2cc(F)ccc2n1Cc1ccc(F)cc1 | 726 |
| O=c1c(C2=CS(=O)(=O)c3cc(F)ccc3N2)c(O)c2cc(F)ccc2n1Cc1ccc(F)cc1 | 1280 |
| N#Cc1ccc2c(c1)S(=O)(=O)C=C(c1c(O)c3cc(F)ccc3n(Cc3ccc(F)cc3)c1=O)N2 | 4640 |
| Nc1ccc2c(c1)S(=O)(=O)C=C(c1c(O)c3cc(F)ccc3n(Cc3ccc(F)cc3)c1=O)N2 | 827 |
| NC(=O)COc1ccc2c(c1)S(=O)(=O)C=C(c1c(O)c3cc(F)ccc3n(Cc3ccc(F)cc3)c1=O)N2 | 1190 |
| CN(c1ccc2c(c1)S(=O)(=O)C=C(c1c(O)c3cc(F)ccc3n(Cc3ccc(F)cc3)c1=O)N2)S(C)(=O)=O | 1470 |

Further lines, results first:

| EC50 [nM] | Structure (SMILES) |
| --- | --- |
| 166 | CS(=O)(=O)Nc1ccc2c(c1)S(=O)(=O)C=C(c1c(O)c3cc(Cl)ccc3n(Cc3ccc(F)cc3)c1=O)N2 |
| 64 | CS(=O)(=O)Nc1ccc2c(c1)S(=O)(=O)C=C(c1c(O)c3cc(F)ccc3n(Cc3ccncc3)c1=O)N2 |
| 47 | COC(C)(C)CCn1c(=O)c(C2=CS(=O)(=O)c3cc(NS(C)(=O)=O)ccc3N2)c(O)c2cc(F)ccc21 |
| 15 | NS(=O)(=O)Nc1ccc2c(c1)S(=O)(=O)C=C(c1c(O)c3cc(F)ccc3n(Cc3ccc(F)cc3)c1=O)N2 |
| 14 | CS(=O)(=O)Nc1ccc2c(c1)S(=O)(=O)C=C(c1c(O)c3cc(F)ccc3n(Cc3ccc(F)cc3)c1=O)N2 |
| 9 | CCCC(C)n1c(=O)c(C2=CS(=O)(=O)c3cc(NS(C)(=O)=O)ccc3N2)c(O)c2cc(F)ccc21 (stereo not given) |

Test system: Hepatitis C virus
Experiment: Inhibition of HCV genotype 1b isolate con1 NS5B polymerase assessed as incorporation of radiolabeled nucleotide into RNA product
Parameters: species or system Hepacivirus hominis
Conditions: not given

| Structure (SMILES) | IC50 [nM] |
| --- | --- |
| CS(=O)(=O)Nc1ccc2c(c1)S(=O)(=O)C=C(c1c(O)c3cc(F)ccc3n(Cc3cccnc3)c1=O)N2 | 22 |
| CC(C)(C)CCn1c(=O)c(C2=CS(=O)(=O)c3cc(NS(C)(=O)=O)ccc3N2)c(O)c2cc(F)ccc21 | 12 |
| CC(=O)Nc1ccc2c(c1)S(=O)(=O)C=C(c1c(O)c3cc(F)ccc3n(Cc3ccc(F)cc3)c1=O)N2 | 869 |
| O=c1c(C2=CS(=O)(=O)c3cc(F)ccc3N2)c(O)c2cc(F)ccc2n1Cc1ccc(F)cc1 | 148 |
| N#Cc1ccc2c(c1)S(=O)(=O)C=C(c1c(O)c3cc(F)ccc3n(Cc3ccc(F)cc3)c1=O)N2 | 694 |
| Nc1ccc2c(c1)S(=O)(=O)C=C(c1c(O)c3cc(F)ccc3n(Cc3ccc(F)cc3)c1=O)N2 | 734 |
| NC(=O)COc1ccc2c(c1)S(=O)(=O)C=C(c1c(O)c3cc(F)ccc3n(Cc3ccc(F)cc3)c1=O)N2 | 10 |
| CN(c1ccc2c(c1)S(=O)(=O)C=C(c1c(O)c3cc(F)ccc3n(Cc3ccc(F)cc3)c1=O)N2)S(C)(=O)=O | 106 |

Next, values leading:

| IC50 [nM] | Structure (SMILES) |
| --- | --- |
| 10 | CS(=O)(=O)Nc1ccc2c(c1)S(=O)(=O)C=C(c1c(O)c3cc(Cl)ccc3n(Cc3ccc(F)cc3)c1=O)N2 |
| 11 | CS(=O)(=O)Nc1ccc2c(c1)S(=O)(=O)C=C(c1c(O)c3cc(F)ccc3n(Cc3ccncc3)c1=O)N2 |
| 10 | COC(C)(C)CCn1c(=O)c(C2=CS(=O)(=O)c3cc(NS(C)(=O)=O)ccc3N2)c(O)c2cc(F)ccc21 |
| 7 | NS(=O)(=O)Nc1ccc2c(c1)S(=O)(=O)C=C(c1c(O)c3cc(F)ccc3n(Cc3ccc(F)cc3)c1=O)N2 |
| 41 | CCCC(C)n1c(=O)c(C2=CS(=O)(=O)c3cc(NS(C)(=O)=O)ccc3N2)c(O)c2cc(F)ccc21 (stereo not given) |

Test system: not listed separately
Experiment: Dissociation constant, pKa of the compound
Type: physicochemical
Conditions: not given

| pKa | Structure (SMILES) |
| --- | --- |
| 3.8 | CS(=O)(=O)Nc1ccc2c(c1)S(=O)(=O)C=C(c1c(O)c3cc(F)ccc3n(Cc3ccc(F)cc3)c1=O)N2 |

Test system: Hepatitis C virus
Experiment: Antiviral activity against HCV genotype 1b isolate con1 infected in human 2209-23 cells assessed as inhibition of [3H]thymidine incorporation into DNA by scintillation proximity assay in presence of 40% human serum albumin
Type: functional, organism-based, Hepacivirus hominis
Conditions: isolate Con1, 2209-23

| EC50 [nM] | Structure (SMILES) |
| --- | --- |
| 241 | CC(C)(C)CCn1c(=O)c(C2=CS(=O)(=O)c3cc(NS(C)(=O)=O)ccc3N2)c(O)c2cc(F)ccc21 |
| 1200 | COC(C)(C)CCn1c(=O)c(C2=CS(=O)(=O)c3cc(NS(C)(=O)=O)ccc3N2)c(O)c2cc(F)ccc21 |
| 688 | CS(=O)(=O)Nc1ccc2c(c1)S(=O)(=O)C=C(c1c(O)c3cc(F)ccc3n(Cc3ccncc3)c1=O)N2 |
